Drawing on US20220144812A1, “QUINOLINE DERIVATIVES AND THEIR USE FOR THE TREATMENT OF CANCER” (Epizyme, Inc., priority 2019, published 2022), this text covers IC50 for 35 compounds.

The IC50 is the concentration that inhibits the measured activity by half.

The target in one experiment is T1, CREBBP (1084-1701) (Homo sapiens, UniProt Q92793).
T1 construct: measured in the following biochemical assay using CREBBP (1084-1701); purchased
Description: Biochemical assay for CREBBP (1084-1701), SAMDI. The conditions noted are these: SAMDI, read-out: CREBBP Biochemistry IC50. Put shortly: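 CREBBP (1084-1701) preincubated with compound 30 min at RT, then substrate mix (biotin-H3 11-25 K14R/K23R peptide, acetyl-CoA) added for 30 min at RT. Reaction stopped with formic acid, neutralised with sodium bicarbonate. Peptide acetylation read by SAMDI mass spectrometry to derive IC50.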

Experiment [1] has as its system H3K18Ac in HB-CLS-2 cells. Description: H3K18AC in-cell western (ICW) assay. As to conditions: read-out: CREBBP ICW IC50. Type of experiment: cell-based. Put shortly:
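HB-CLS-2 cells seeded 16–24 hours before 2 hr compound treatment at 37° C, 5% CO2, then methanol-fixed. H3K18Ac detected with rabbit monoclonal primary (overnight, 4° C) and 800CW anti-rabbit secondary; DRAQ5 stained DNA. Plates imaged at 700 and 800 nm for integrated intensity; IC50 in μM.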

Another experiment deals with 647V cells. As to the kind of experiment: High throughput proliferation (HTP) assay. Format: cell-based. The conditions noted are these: read-out: CREBBP HTP IC50. An excerpt: The following example describes methods and materials relating to a high throughput proliferation (HTP) assay. IC50 values (micromolar) are summarized in Table 1, Table 2, and Table 3 under the column labeled: “CREBBP HTP IC50 (micromolar).”
MATERIALS: 647V cell line, Dulbecco's MEM, penicillin-streptomycin, heat inactivated fetal bovine serum, D-PBS, and CellTiter-Glo were commercially available.
647V adherent cells were maintained in complete growth medium (Dulbecco's MEM supplemented with 15% v/v heat inactivated fetal bovine serum) and cultured at 37° C. under 5% CO2.
METHOD: Measurement of the effect of compound in High Throughput Proliferation (HTP) assays was performed as follows: Exponentially growing 647V cells were plated, in triplicate, in 384-well plates at the appropriate cell density in a final volume of 50 μl. Cells were incubated in the presence of increasing concentrations of compound. Viable cell number was determined at day 7 by addition of 35 μl CellTiter-Glo to each well of the plate, incubated in the dark for 30 minutes, and read on a PerkinElmer EnVision instrument to enumerate the number of cells.

The mark [2] stands for this setting: Homo sapiens, 647-V, high throughput proliferation.
The mark [3] stands for this setting: 2 h, H3K18Ac in HB-CLS-2 cells, 2 hrs compound incubation.
Where [4] appears, read: Homo sapiens, 647-V, 168 h, 647V cells, day 7, CellTiter-Glo.
Where [5] appears, read: H3K18Ac in-cell western, HB-CLS-2 cells.
[6] abbreviates: Homo sapiens, 647-V, high throughput proliferation, 647V cells.

Like-named read-outs stand apart in the source and are kept apart here.

T1 sequence (Q92793 1084-1701): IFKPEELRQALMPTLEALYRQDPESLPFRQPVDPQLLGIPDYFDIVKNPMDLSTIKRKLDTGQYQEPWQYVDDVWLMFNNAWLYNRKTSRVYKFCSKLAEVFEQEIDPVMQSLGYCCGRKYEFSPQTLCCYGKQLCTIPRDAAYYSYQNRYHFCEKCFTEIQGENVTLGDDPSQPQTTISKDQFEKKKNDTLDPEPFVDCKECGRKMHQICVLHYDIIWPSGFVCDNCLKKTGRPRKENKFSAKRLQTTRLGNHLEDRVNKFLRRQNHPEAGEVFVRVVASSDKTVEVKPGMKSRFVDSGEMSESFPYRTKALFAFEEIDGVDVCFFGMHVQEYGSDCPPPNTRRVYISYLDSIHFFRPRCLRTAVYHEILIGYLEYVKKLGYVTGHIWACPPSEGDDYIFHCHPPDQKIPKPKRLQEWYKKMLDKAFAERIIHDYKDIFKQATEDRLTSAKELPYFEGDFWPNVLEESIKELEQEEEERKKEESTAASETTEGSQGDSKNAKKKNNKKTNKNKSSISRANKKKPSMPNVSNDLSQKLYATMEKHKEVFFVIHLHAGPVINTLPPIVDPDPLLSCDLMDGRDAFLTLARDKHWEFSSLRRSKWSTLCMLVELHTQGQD

As for `CCn1ncc(CN(C)C(=O)c2nc(-c3cncn3C)nc3ccc(Cl)cc23)c1C` [Compound 158], the IC50 at CREBBP (1084-1701) worked out at 14 µM; in experiment [1] (H3K18Ac in-cell western) it was 9.8 µM; in the experiment with 647V cells (high throughput proliferation), 6.6 µM.

As for `CCn1ncc(CN(C)C(=O)c2nc(-c3cc(Cl)cc(OCCCNC(=O)OC(C)(C)C)c3)nc3ccc(Cl)cc23)c1C` [Compound 180], the IC50 was found to be 19 µM in experiment [1] (H3K18Ac in-cell western) and 20 µM with 647V cells (setting [2]).

For `CCn1ncc(CN(C)C(=O)c2cc(-c3ccc(NCC(O)CN(C)C)c(C)n3)nc3ccc(COC)cc23)c1C` (stereo not drawn) [Compound 643], the results for the IC50 (in experiment [1] (setting [3]); in the experiment with 647V cells (setting [4])) were 0.327 µM and 0.233 µM, respectively.

Regarding `CCn1ncc(CN(C)C(=O)c2nc(-c3ccc4c[nH]nc4c3Cl)nc3ccc(COC)cc23)c1C` [Compound 52], the figures for the IC50 (on CREBBP (1084-1701); in experiment [1] (H3K18Ac in-cell western); in the experiment on 647V cells (setting [2])) were 0.25 µM, 0.52 µM and 0.69 µM, respectively.

In the case of `CCn1ncc(CN(C)C(=O)c2nc(-n3cc4c(n3)CN(C(=O)OC(C)(C)C)CC4)nc3ccc(Cl)cc23)c1C` [Compound 193], the figures for the IC50 (in experiment [1] (H3K18Ac in-cell western); in the experiment with 647V cells (setting [2])) were 20 µM and 8.2 µM, respectively.

As for `CCn1ncc(CN(C)C(=O)c2nc(N3CCN(C)CC3)nc3ccc(Cl)cc23)c1C` [Compound 245], the IC50 (in experiment [1] (setting [5]); in the experiment on 647V cells (setting [6])) was 20 µM each time.

Consider `CCn1ncc(CN(C)C(=O)c2nc(-c3cc(Cl)cc(OCCCN(C)C(=O)OC(C)(C)C)c3)nc3ccc(Cl)cc23)c1C` [Compound 233], for which the IC50 (in experiment [1] (setting [5]); in the experiment on 647V cells (setting [6])) was 20 µM throughout.

With `CCn1ncc(CN(C)C(=O)c2nc(-c3ccc(OCCCNC)c(C)c3)nc3ccc(Cl)cc23)c1C` [Compound 29], the values for the half-inhibitory concentration (IC50) (at CREBBP (1084-1701); in experiment [1] (H3K18Ac in-cell western); in the experiment on 647V cells (setting [2])) were 0.028 µM, 0.23 µM and 0.1 µM, respectively.

With `CCn1ncc(CN(C)C(=O)c2cc(-c3ccccc3C#N)nc3ccc(Cl)cc23)c1C` [Compound 81], the half-inhibitory concentration (IC50) at CREBBP (1084-1701) amounted to 1.8 µM; in experiment [1] (H3K18Ac in-cell western), 1.2 µM; with 647V cells (setting [2]), 2.2 µM.

Turning to `CCn1ncc(CN(C)C(=O)c2nc(-c3ccc4[nH]cnc4c3)nc3ccc(Cl)cc23)c1C` [Compound 57], the IC50 in experiment [1] (H3K18Ac in-cell western) was 0.66 µM; with 647V cells (setting [2]) it was 0.5 µM.

For `CCn1ncc(CN(C)C(=O)c2nc(-c3cccc(Cl)c3)nc3ccccc23)c1C` [Compound 130], the IC50 is 2 µM on CREBBP (1084-1701), 4.7 µM in experiment [1] (H3K18Ac in-cell western) and 6.5 µM in the experiment with 647V cells (setting [2]).

`Cc1n[nH]c(C)c1CN(C)C(=O)c1nc(-c2ccccc2Cl)nc2ccc(Cl)cc12` [Compound 229]: the IC50 (in experiment [1] (setting [5]); in the experiment with 647V cells (setting [6])) was 20 µM each time.

Turning to `CCn1ncc(CN(C)C(=O)c2nc(-c3cccc(Cl)c3)nc3ccc(Cl)cc23)c1C` [Compound 71], the IC50 at CREBBP (1084-1701) worked out at 0.0094 µM; in experiment [1] (H3K18Ac in-cell western), 0.92 µM; in the experiment with 647V cells (setting [2]) it was 1.2 µM.

For `CCn1ncc(CN(C)C(=O)c2nc(-c3ccccc3Cl)nc3ccccc23)c1C` [Compound 284], the IC50 turned out to be 13 µM on CREBBP (1084-1701), 15 µM in experiment [1] (setting [5]) and 8.5 µM in the experiment with 647V cells (setting [6]).

Turning to `CCn1ncc(CN(C)C(=O)c2nc(-c3ccc4nc[nH]c4c3)nc3ccc(Cl)cc23)c1C` [Compound 47], the IC50 in experiment [1] (H3K18Ac in-cell western) came out at 0.43 µM; in the experiment with 647V cells (setting [2]) it was 0.42 µM.

`CCn1ncc(CN(C)C(=O)c2nc(-c3ccc(OCCNC)cn3)nc3ccc(Cl)cc23)c1C` [Compound 238]: the IC50 (in experiment [1] (setting [5]); in the experiment with 647V cells (setting [6])) was 20 µM each time.

With `CCc1[nH]cc(CN(C)C(=O)c2nc(-c3ccccc3Cl)nc3ccc(Cl)cc23)c1C` [Compound 221], the IC50 amounted to 20 µM in experiment [1] (setting [5]) and 10 µM in the experiment with 647V cells (setting [6]).

As for `CCn1ncc(CN(C)C(=O)c2cc(-c3ccc(OCCCNC)cn3)nc3ccc(Cl)cc23)c1C` [Compound 219], the IC50 (in experiment [1] (setting [5]); in the experiment with 647V cells (setting [6])) was 20 µM in each case.

As to `CCn1ncc(CN(C)C(=O)c2nc(N3CCCN(C)CC3)nc3ccc(Cl)cc23)c1C` [Compound 196], the values for the IC50 (in experiment [1] (H3K18Ac in-cell western); with 647V cells (setting [2])) were 20 µM and 17 µM, respectively.

`CCn1ncc(CN(C)C(=O)c2cc(-n3cc4c(n3)CN(C(=O)OC(C)(C)C)CC4)nc3ccc(Cl)cc23)c1C` [Compound 178]: the IC50 in experiment [1] (H3K18Ac in-cell western) was found to be 17 µM; in the experiment with 647V cells (setting [2]), 4.8 µM.

As for `CCn1ncc(CN(C)C(=O)c2nc(-c3ccc(OCCCNC)c(C)c3)nc3ccc(Cl)cc23)c1C` [Compound 36], the IC50 at CREBBP (1084-1701) is 0.052 µM; in experiment [1] (H3K18Ac in-cell western), 0.3 µM; in the experiment on 647V cells (high throughput proliferation) it was 0.18 µM.

As for `CCN(Cc1cnn(CC)c1C)C(=O)c1cc(-c2cccc(Cl)c2)nc2ccc(Cl)cc12` [Compound 175], the IC50 is 5.3 µM at CREBBP (1084-1701), 15 µM in experiment [1] (H3K18Ac in-cell western) and 9.4 µM in the experiment with 647V cells (setting [2]).

For the compound `CCn1ncc(CN(C)C(=O)c2cc(-c3ccccc3F)nc3ccc(Cl)cc23)c1C` [Compound 86], the IC50 was found to be 0.71 µM on CREBBP (1084-1701), 1.3 µM in experiment [1] (H3K18Ac in-cell western) and 1.4 µM in the experiment on 647V cells (setting [2]).

As to `CCn1ncc(CN(C)C(=O)c2nc(-c3cn(CCCN(C)C(=O)OC(C)(C)C)cn3)nc3ccc(Cl)cc23)c1C` [Compound 230], the IC50 (in experiment [1] (setting [5]); with 647V cells (setting [6])) was 20 µM each time.

As to `CCn1ncc(CN(C)C(=O)c2cc(-c3ccccn3)nc3ccc(Cl)cc23)c1C` [Compound 92], the results for the half-inhibitory concentration (IC50) (at CREBBP (1084-1701); in experiment [1] (H3K18Ac in-cell western); with 647V cells (setting [2])) were 0.31 µM, 1.7 µM and 0.41 µM, respectively.

As to `CCn1ncc(CN(C)C(=O)c2nc(-c3ccc4nc[nH]c4c3)nc3ccc(Cl)cc23)c1C` [Compound 59], the figures for the IC50 (in experiment [1] (H3K18Ac in-cell western); in the experiment with 647V cells (high throughput proliferation)) were 0.67 µM and 0.44 µM, respectively.

`CCn1ncc(CN(C)C(=O)c2nc(-c3cn(CCN(C)C(=O)OC(C)(C)C)cn3)nc3ccc(Cl)cc23)c1C` [Compound 240]: the IC50 (in experiment [1] (setting [5]); in the experiment with 647V cells (setting [6])) was 20 µM each time.

In the case of `CCn1ncc(CN(C)C(=O)c2nc(-c3ccc4c[nH]nc4c3Cl)nc3ccc(COC)cc23)c1C` [Compound 68], the values for the IC50 (at CREBBP (1084-1701); in experiment [1] (H3K18Ac in-cell western); in the experiment with 647V cells (high throughput proliferation)) were 0.25 µM, 0.8 µM and 0.69 µM, respectively.

Consider `CCn1ncc(CN(C)C(=O)c2nc(-n3ncc4c3CN(C(=O)OC(C)(C)C)CC4)nc3ccc(Cl)cc23)c1C` [Compound 192], for which the IC50 in experiment [1] (H3K18Ac in-cell western) came to 20 µM; with 647V cells (setting [2]), 9.4 µM.

`Cc1c(CN(C)C(=O)c2cc(-c3cccc(Cl)c3)nc3ccc(Cl)cc23)cnn1C(C)C` [Compound 132]: the IC50 on CREBBP (1084-1701) came out at 0.31 µM; in experiment [1] (H3K18Ac in-cell western), 4.9 µM; in the experiment on 647V cells (setting [2]) it was 2.2 µM.

In the case of `CCc1cc(-c2nc(C(=O)N(C)Cc3cnn(CC)c3C)c3cc(Cl)ccc3n2)ccc1OCCCN(C)C(=O)OC(C)(C)C` [Compound 209], the figures for the 50% inhibitory concentration (IC50) (in experiment [1] (setting [5]); with 647V cells (setting [6])) were 20 µM and 8.8 µM, respectively.

In the case of `CCn1ncc(CN(C)C(=O)c2cc(-c3cn(Cc4ccc(OC)cc4)c(CN(C)C)n3)nc3ccc(Cl)cc23)c1C` [Compound 239], the concentration for half-maximal inhibition (IC50) (in experiment [1] (setting [5]); with 647V cells (setting [6])) was 20 µM each time.

For `CCc1ncc(CN(C)C(=O)c2cc(-c3ccc(NCC(O)CN(C)C)c(C)n3)nc3ccc(COC)cc23)n1C` (stereo not drawn) [Compound 644], the IC50 in experiment [1] (setting [3]) came to 0.701 µM; with 647V cells (setting [4]), 0.269 µM.

Turning to `CCn1ncc(CN(C)C(=O)c2cc(-c3cccc(Cl)c3)nc3ccc(Cl)cc23)c1C` [Compound 106], the IC50 was determined as 0.31 µM on CREBBP (1084-1701), 2.4 µM in experiment [1] (H3K18Ac in-cell western) and 2.6 µM in the experiment with 647V cells (setting [2]).

Turning to `CCc1ccc2nc(-c3cccc(Cl)c3)nc(C(=O)N(C)Cc3cnn(CC)c3C)c2c1` [Compound 361], the concentration for half-maximal inhibition (IC50) on CREBBP (1084-1701) came to 0.0028 µM; in experiment [1] (setting [5]), 0.48 µM.
